Like-named read-outs stand apart in the source and are kept apart here. Peptide text beside a SMILES is read from it.
Tests used:
[1] = biological target: T1, sweet taste receptor (human T1R2 and T1R3 subunits, mouse Gα15) (Homo sapiens, UniProt Q7RTX0+Q8TE23, C757R/I191V/I486V/R317G); test: sweet taste receptor-expressing cell-based assay (calcium flux); conditions: natural, high intensity and artificial sweeteners; FIGS. 23 and 24
T1 construct: expressed in transfected cells; host or cells: HEK293T (ATCC CRL-11268)
T1 sequence (Q8TE23 20-839 I191V/R317G/I486V): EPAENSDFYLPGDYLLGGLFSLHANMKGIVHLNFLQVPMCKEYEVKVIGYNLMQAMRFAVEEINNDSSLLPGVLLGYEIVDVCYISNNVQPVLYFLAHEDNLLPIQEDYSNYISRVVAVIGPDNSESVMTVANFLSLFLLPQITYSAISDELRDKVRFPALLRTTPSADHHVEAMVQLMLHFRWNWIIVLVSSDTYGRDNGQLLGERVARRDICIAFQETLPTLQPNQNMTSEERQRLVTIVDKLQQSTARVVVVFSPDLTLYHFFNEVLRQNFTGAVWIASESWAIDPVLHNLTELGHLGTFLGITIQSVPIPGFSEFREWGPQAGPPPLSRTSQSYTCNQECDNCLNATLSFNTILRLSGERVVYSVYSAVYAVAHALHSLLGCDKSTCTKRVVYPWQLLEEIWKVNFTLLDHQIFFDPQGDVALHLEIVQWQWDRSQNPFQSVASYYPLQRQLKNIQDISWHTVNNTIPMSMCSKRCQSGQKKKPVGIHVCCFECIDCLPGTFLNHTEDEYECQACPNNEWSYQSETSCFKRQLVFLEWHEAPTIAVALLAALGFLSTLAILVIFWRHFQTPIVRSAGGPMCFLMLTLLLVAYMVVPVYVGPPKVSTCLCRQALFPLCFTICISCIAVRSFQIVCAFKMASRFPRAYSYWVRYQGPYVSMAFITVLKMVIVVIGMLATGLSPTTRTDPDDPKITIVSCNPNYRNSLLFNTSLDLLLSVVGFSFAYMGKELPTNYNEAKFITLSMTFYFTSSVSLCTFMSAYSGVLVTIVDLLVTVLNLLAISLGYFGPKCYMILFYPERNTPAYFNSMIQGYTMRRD
T1 sequence (Q7RTX0 21-852 C757R): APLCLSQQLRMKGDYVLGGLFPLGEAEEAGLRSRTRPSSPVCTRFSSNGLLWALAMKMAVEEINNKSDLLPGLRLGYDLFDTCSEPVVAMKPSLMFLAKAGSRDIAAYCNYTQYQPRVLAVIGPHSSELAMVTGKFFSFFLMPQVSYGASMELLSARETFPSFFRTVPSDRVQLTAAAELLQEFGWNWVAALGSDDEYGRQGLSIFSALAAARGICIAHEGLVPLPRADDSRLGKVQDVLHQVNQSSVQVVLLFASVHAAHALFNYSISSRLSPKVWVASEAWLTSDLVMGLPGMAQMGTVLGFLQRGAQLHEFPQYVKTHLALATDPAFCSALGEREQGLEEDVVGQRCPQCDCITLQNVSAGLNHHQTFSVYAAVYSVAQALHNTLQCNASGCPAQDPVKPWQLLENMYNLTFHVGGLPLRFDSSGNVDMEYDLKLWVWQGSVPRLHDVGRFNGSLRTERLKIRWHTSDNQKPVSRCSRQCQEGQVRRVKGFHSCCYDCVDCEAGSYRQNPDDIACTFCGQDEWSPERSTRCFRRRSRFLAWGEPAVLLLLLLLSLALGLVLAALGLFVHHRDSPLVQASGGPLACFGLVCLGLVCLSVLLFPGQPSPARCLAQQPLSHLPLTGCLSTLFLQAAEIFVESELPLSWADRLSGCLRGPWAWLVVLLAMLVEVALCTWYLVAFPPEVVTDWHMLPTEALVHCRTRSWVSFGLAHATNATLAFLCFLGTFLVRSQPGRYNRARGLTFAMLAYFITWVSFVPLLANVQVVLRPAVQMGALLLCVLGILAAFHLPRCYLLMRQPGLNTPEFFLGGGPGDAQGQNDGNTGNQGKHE
Text: FIG. 24 (A-C) is series of line graphs representing the data obtained in various dose response experiments using sweet taste receptor agonists in a sweet taste receptor-expressing cell-based assay (using cells of this invention). (A) The responses of a sweet taste receptor-expressing cell line to natural caloric sweeteners were plotted as a function of the agonist concentration. (B) Dose response curves of common artificial sweeteners in a sweet taste receptor-expressing cell-based assay. (C) Dose response curves of natural high-intensity sweeteners in a sweet taste receptor-expressing cell-based assay.
FIG. 25 is a series of representative response traces generated after performing a sweet taste receptor-expressing cell-based assay using cells of this invention.
To identify a taste receptor modulator (e.g., umami taste receptor modulator or sweet taste receptor modulator), one exposes a cell or cell line of the invention to a test compound under conditions in which the taste receptor (e.g., umami taste receptor or sweet taste receptor) would be expected to be functional and then detects a statistically significant change (e.g., p<0.05) in taste receptor activity (e.g., umami taste receptor activity or sweet taste receptor activity) compared to a suitable control, e.g., cells that are not exposed to the test compound. Positive and/or negative controls using known agonists or antagonists and/or cells expressing different combinations of taste receptor subunits (e.g., umami taste receptor subunits or sweet taste receptor subunits) (and optionally a G protein) may also be used. In some embodiments, the taste receptor activity (e.g., umami taste receptor activity or sweet taste receptor activity) to be detected and/or measured is calcium release from the endoplasmic reticulum as a result of the down stream signaling events following taste receptor activation (e.g., umami taste receptor activation or sweet taste receptor activation). One of ordinary skill in the art would understand that various assay parameters may be optimized, e.g., signal to noise ratio.
See, e.g., FIGS. 23 and 24.

GABAA α1β3γ2s (α1) = biological target: T2, GABAA α1β3γ2s (α1) (Homo sapiens, UniProt P14867+P18507+P28472); assay type: cell-based; conditions: CHO cells, membrane potential dye
T2 construct: expressed in transfected cells; host or cells: CHO
T2 sequence (P14867 28-456): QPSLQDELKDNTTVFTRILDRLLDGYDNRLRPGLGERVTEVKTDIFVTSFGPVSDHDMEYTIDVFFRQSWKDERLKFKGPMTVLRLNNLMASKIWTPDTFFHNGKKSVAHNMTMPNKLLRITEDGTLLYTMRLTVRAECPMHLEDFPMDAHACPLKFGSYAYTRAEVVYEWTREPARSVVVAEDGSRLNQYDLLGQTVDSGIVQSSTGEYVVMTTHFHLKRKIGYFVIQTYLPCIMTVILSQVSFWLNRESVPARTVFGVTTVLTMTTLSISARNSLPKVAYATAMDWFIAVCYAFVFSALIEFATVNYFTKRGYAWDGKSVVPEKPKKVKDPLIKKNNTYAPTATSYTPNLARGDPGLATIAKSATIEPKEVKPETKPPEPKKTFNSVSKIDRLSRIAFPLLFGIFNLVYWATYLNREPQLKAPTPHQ
T2 sequence (P28472 26-473): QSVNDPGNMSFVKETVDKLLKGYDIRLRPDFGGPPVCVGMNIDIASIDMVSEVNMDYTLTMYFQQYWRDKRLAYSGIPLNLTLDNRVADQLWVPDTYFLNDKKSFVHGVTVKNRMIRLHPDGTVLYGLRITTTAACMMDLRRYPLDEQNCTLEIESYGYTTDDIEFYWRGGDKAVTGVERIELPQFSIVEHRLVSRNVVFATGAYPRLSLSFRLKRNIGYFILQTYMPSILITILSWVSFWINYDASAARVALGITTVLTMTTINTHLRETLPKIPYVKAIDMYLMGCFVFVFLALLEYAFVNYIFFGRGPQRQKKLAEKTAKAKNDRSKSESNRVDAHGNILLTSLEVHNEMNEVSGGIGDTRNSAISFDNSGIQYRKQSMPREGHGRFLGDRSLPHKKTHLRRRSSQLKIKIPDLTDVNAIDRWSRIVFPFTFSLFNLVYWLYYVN
T2 sequence (P18507 40-467 isoform P18507-1 limits assumed): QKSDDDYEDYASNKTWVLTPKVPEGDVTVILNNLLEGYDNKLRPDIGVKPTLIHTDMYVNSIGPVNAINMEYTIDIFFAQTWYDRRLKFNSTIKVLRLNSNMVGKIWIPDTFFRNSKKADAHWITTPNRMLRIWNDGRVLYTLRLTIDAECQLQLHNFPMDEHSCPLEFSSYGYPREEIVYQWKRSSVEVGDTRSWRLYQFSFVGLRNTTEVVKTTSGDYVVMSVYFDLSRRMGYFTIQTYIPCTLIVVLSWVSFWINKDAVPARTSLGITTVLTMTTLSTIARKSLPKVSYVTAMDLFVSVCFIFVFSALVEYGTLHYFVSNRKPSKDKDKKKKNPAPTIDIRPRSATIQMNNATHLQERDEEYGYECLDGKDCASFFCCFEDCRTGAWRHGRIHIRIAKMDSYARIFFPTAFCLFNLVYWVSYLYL
Protocol: (§1) Cells were plated 24 hours prior to assay at 10-25,000 cells per well in 384 well plates in growth media (Ham's F-12 media plus FBS and glutamine). […] Incubation was for 1 hour, followed by plate loading onto the high throughput fluorescent plate reader (Hamamastu FDSS). […] The plates were read for 90 seconds.
(§2) Interaction of cell lines with test compounds was evaluated by measuring the membrane potential of GABAA, in response to test compounds using the following protocol.

GABAA α5β3γ2s (α5) = biological target: T3, GABAA α5β3γ2s (α5) (Homo sapiens, UniProt P18507+P28472+P31644); assay type: cell-based
T3 construct: expressed in transfected cells; host or cells: CHO
T3 sequence (P31644 32-462): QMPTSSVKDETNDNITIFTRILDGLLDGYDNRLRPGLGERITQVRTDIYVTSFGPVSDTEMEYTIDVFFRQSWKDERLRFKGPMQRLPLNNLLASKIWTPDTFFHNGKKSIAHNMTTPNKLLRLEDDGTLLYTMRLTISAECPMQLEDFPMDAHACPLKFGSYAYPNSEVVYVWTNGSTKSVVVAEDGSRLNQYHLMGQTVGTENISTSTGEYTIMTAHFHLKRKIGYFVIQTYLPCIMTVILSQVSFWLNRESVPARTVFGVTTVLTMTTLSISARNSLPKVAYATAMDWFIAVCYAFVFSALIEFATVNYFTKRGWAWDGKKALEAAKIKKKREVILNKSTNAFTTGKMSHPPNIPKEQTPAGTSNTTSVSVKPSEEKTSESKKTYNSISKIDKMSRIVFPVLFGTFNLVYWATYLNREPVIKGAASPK
T3 sequence (P28472 26-473): as the sequence (P28472 26-473) above
T3 sequence (P18507 40-467 isoform P18507-1 limits assumed): as the sequence (P18507 40-467 isoform P18507-1 limits assumed) above
Protocol: as §1, §2

GABAA α2β3γ2s (α2) = biological target: T4, GABAA α2β3γ2s (α2) (Homo sapiens, UniProt P18507+P28472+P47869, A343T); assay type: cell-based
T4 construct: expressed in transfected cells; host or cells: CHO
T4 sequence (P47869 29-451 A343T): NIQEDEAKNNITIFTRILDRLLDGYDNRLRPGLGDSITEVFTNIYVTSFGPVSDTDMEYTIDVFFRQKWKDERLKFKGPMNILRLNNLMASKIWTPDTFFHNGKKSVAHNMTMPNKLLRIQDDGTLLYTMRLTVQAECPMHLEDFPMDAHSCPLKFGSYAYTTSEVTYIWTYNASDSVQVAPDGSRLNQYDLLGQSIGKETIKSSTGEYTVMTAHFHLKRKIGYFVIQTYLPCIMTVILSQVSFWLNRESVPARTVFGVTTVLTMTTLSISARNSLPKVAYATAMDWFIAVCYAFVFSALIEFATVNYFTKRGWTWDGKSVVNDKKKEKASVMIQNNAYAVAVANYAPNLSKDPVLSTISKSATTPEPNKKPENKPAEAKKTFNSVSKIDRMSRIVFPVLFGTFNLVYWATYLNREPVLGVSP
T4 sequence (P28472 26-473, stated change not applied): as the sequence (P28472 26-473) above
T4 sequence (P18507 40-467 isoform P18507-1 limits assumed, stated change not applied): as the sequence (P18507 40-467 isoform P18507-1 limits assumed) above
Protocol: as §1, §2

GABAA α3β3γ2s (α3) = biological target: T5, GABAA α3β3γ2s (α3) (Homo sapiens, UniProt P18507+P28472+P34903); assay type: cell-based; conditions: CHO cells, membrane potential dye
T5 construct: expressed in transfected cells; host or cells: CHO
T5 sequence (P34903 29-492): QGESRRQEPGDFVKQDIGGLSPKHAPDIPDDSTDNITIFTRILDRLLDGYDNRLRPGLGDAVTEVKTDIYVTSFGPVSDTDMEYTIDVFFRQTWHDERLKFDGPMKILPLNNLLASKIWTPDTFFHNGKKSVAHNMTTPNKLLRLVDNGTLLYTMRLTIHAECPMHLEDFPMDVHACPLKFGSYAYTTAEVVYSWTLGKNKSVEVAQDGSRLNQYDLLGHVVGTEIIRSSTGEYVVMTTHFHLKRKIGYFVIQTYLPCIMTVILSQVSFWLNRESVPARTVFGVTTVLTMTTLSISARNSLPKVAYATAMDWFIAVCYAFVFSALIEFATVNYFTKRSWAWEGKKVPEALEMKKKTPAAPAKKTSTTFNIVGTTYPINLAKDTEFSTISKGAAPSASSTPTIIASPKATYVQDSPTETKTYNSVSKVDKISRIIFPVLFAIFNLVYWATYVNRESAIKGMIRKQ
T5 sequence (P28472 26-473): as the sequence (P28472 26-473) above
T5 sequence (P18507 40-467 isoform P18507-1 limits assumed): as the sequence (P18507 40-467 isoform P18507-1 limits assumed) above
Protocol: as §1, §2

[2] = biological target: T6, sweet taste receptor (T1R2/T1R3) (Homo sapiens, UniProt Q7RTX0+Q8TE23, C757R/I191V/I486V/R317G); test: Sweet cell-based calcium flux assay, HEK293T cells expressing T1R2, T1R3 and mouse Gα15; conditions: FIG. 24, one assay; read-out: EC50 values (calcium flux)
T6 construct: expressed in transfected cells; host or cells: HEK293T (ATCC CRL-11268)
T6 sequence (Q8TE23 20-839 I191V/R317G/I486V): T1 sequence (Q8TE23 20-839 I191V/R317G/I486V)
T6 sequence (Q7RTX0 21-852 C757R): T1 sequence (Q7RTX0 21-852 C757R)
Text: Plates are then loaded on a high throughput plate reader (Hamamatsu FDSS). […] Calcium flux is detected for 90 seconds.

[3] = test system: GABAA (α1β3γ2s, α2β3γ2s, α3β3γ2s, α5β3γ2s); test: In-cell readout assay using halide-sensitive meYFP, GABAA-meYFP-CHO cells; assay type: cell-based, human; conditions: increasing concentrations of GABA ligand
Protocol: The response of GABAA (subunit combinations of α1β3γ2s (A1), α2β3γ2s (A2), α3β3γ2s (A3) and α5β3γ2s (A5)) expressing CHO cells of the invention to test compounds was evaluated using the following protocol for an in-cell readout assay.
Cells were plated 24 hours prior to assay at 10-25,000 cells per well in 384 well plates in growth media (Ham's F-12 media plus FBS and glutamine). […] The assay plates were then loaded on the FDSS (Hamamatsu Corporation). […] The plates were read for 90 seconds.

human GC-C (human) = human GC-C (human) (UniProt P25092); test: cell-based or functional assay
human GC-C (human), sequence (P25092 24-1073): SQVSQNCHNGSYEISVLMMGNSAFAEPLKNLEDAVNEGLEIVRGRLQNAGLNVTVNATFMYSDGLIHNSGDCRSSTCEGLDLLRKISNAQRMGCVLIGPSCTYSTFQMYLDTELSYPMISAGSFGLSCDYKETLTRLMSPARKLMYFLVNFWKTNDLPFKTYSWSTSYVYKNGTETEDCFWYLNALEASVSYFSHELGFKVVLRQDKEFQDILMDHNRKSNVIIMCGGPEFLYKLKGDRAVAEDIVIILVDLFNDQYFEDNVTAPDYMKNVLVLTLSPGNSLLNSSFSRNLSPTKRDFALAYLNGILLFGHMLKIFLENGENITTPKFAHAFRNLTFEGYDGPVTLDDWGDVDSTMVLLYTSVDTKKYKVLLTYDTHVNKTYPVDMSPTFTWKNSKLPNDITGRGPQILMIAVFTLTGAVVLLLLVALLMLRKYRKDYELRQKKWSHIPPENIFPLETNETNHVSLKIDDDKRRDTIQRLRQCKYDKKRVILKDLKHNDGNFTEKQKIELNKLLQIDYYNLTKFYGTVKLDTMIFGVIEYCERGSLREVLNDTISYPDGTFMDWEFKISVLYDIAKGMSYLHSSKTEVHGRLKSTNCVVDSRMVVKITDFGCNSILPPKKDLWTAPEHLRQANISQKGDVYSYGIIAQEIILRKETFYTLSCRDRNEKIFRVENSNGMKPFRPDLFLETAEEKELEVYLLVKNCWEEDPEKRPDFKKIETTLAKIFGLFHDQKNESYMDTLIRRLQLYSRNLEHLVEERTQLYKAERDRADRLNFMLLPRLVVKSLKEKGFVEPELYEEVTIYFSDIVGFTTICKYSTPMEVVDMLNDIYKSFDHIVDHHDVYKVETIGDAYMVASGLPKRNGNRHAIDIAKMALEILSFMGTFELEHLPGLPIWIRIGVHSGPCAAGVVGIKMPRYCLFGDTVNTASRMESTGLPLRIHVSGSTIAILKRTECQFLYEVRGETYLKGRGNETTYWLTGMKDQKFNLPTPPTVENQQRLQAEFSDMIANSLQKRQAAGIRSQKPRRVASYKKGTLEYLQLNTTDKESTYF

[4] = CHO cells, membrane potential dye

Molecule | response of sweet taste receptor cells and cell lines to known classes of sweet compounds [1] | EC50 (GABAA α1β3γ2s (α1)) [µM] | EC50 (GABAA α2β3γ2s (α2); [4]) [µM] | EC50 (GABAA α3β3γ2s (α3)) [µM] | other results
COC(=O)[C@H](Cc1ccccc1)NC(=O)[C@@H](N)CC(=O)O [asparatame] (H-Asp-Phe-OMe) | respond | – | – | – | –
C=C1C[C@@]23CC[C@H]4[C@@](C)(CCC[C@@]4(C)C(=O)O[C@@H]4O[C@H](CO)[C@@H](O)[C@H](O)[C@H]4O)[C@@H]2CC[C@]1(O[C@@H]1O[C@H](CO)[C@@H](O)[C@H](O[C@@H]2O[C@H](CO)[C@@H](O)[C@H](O)[C@H]2O)[C@H]1O[C@@H]1O[C@H](CO)[C@@H](O)[C@H](O)[C@H]1O)C3 [rebaudioside A] | respond | – | – | – | –
CC12CCC(O)CC1CCC1C2CCC2(C)C(C(=O)CO)CCC12 (stereo not drawn) [3-alpha, 21-dihydroxy-5-alpha-pregnan-20-one] | – | 0.382 | 0.123 | 0.0802 | EC50 (GABAA α5β3γ2s (α5); [4]): 0.0173 µM
OC[C@H]1O[C@@](CO)(O[C@H]2O[C@H](CO)[C@@H](O)[C@H](O)[C@H]2O)[C@@H](O)[C@@H]1O [sucrose] | respond | – | – | – | EC50 [2]: < 3500 µM
CC(C)(C)c1cc(C=C(C#N)C#N)cc(C(C)(C)C)c1O [Tyrphostin A9] | – | 1.8 | 0.88 | 5 | EC50 (GABAA α5β3γ2s (α5); [4]): 54 µM
NCCCC(=O)O [GABA] | – | – | – | – | quench of meYFP signal [3]: increasing quench of meYFP signal
CC1=CC(=O)NS(=O)(=O)O1 [acesulfamek] | respond | – | – | – | –
Ivermectin | – | 4.26 | 0.767 | 0.798 | EC50 (GABAA α5β3γ2s (α5); [4]): 0.687 µM
mogroside | respond | – | – | – | –
COc1cc(/C=C(\C#N)C(=O)c2ccc(O)c(O)c2)cc(I)c1O [I—OMe Tyrphostin 538] | – | 3.5 | 1.5 | 2.2 | EC50 Values α5 (result in words) (GABAA α5β3γ2s (α5); [4]): Not active
O=C1NS(=O)(=O)c2ccccc21 [saccharin] | respond | – | – | – | –
CC(=O)C1CCC2C3CCC4CC(O)CCC4(C)C3CCC12C (stereo not drawn) [5-alpha-Pregnan-3alpha-ol-20-one] | – | 0.692 | – | 0.08 | EC50 (GABAA α5β3γ2s (α5)): 0.0336 µM; EC50 (GABAA α2β3γ2s (α2)): 0.14 µM
guanylin (peptide) | – | – | – | – | EC50 of guanylin dose-response (absorbance as a function of changes in cGMP levels) (human GC-C (human)): 0.0011 µM; level of cGMP (human GC-C (human)): 6 pmol/mL

Reference: patent US20170052170A1, “NOVEL CELL LINES AND METHODS” (priority 2009, published 2017)
